Laboratory results reported in US20070004660A1, “Synergistic Modulation of Flt3 Kinase Using Alkylquinolines and Alkylquinazolines” (priority 2005, published 2007).

Biological target: T1, wild-type FLT3 receptor (Homo sapiens, UniProt P36888)
T1 construct: host or cells: Baf3 (murine B cell lymphoma line), stably transfected
T1 sequence (P36888 27-993): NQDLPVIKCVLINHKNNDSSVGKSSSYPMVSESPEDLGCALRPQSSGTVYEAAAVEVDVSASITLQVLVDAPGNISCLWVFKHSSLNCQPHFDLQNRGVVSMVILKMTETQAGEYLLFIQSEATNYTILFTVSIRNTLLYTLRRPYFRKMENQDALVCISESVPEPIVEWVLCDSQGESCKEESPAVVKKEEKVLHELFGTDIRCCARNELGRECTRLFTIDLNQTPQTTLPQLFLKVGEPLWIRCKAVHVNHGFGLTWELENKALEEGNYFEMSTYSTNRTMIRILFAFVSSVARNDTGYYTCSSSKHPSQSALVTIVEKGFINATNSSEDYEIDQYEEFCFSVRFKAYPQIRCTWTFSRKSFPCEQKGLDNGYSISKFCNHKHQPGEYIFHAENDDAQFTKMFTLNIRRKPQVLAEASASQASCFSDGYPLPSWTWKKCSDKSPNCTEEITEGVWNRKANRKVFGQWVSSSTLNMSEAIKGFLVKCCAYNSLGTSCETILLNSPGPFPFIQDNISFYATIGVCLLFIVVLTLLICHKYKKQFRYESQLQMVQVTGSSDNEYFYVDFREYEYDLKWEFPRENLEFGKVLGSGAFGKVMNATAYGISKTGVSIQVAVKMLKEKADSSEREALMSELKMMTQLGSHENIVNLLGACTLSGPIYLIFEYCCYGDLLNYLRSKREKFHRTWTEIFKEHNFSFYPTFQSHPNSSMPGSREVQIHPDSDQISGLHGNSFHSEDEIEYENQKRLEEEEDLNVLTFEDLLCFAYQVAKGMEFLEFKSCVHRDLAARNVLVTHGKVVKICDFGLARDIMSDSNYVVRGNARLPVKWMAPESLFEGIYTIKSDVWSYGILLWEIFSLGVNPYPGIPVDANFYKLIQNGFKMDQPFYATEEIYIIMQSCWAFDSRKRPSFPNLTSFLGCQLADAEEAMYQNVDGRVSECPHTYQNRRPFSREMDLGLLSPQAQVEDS
Test: Cell-based FLT3 receptor ELISA (FLT ligand-induced phosphorylation in Baf3 FLT3 cells)
Conditions: 100 ng/mL Flt ligand, uncertainty ±20%
How it was run: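 Receptor phosphotyrosine measured by sandwich ELISA (anti-FLT3 capture, HRP anti-pTyr, luminescence) in FLT3-transfected murine Baf3 cells given 1 h compound pretreatment and 10 min 100 ng/mL FLT ligand after overnight low-serum starvation; triplicates, IC50 from nonlinear regression.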

Row | IC50 [nM] | SMILES
1 | 107 | CN1CCCN(c2ccc3c(C4CCN(C(=O)Nc5ccc(N6CCOCC6)cc5)CC4)ncnc3c2)CC1 [Example 138, 4-[7-(4-Methyl-[1,4]diazepan-1-yl)-quinazolin-4-yl]-piperidine-1-carboxylic acid (4-morpholin-4-yl-phenyl)-amide]
2 | 211 | O=C(Nc1ccc(N2CCOCC2)cc1)N1CCC(c2ncnc3cc(N4CCC[C@H]4CO)ccc23)CC1 [Example 139, (S)-4-[7-(2-Hydroxymethyl-pyrrolidin-1-yl)-quinazolin-4-yl]-piperidine-1-carboxylic acid (4-morpholin-4-yl-phenyl)-amide]
3 | 31 | O=C(Nc1ccc(N2CCOCC2)cc1)N1CCC(c2ncnc3cc(N4CCNCC4)ccc23)CC1 [Example 140, 4-(7-Piperazin-1-yl-quinazolin-4-yl)-piperidine-1-carboxylic acid (4-morpholin-4-yl-phenyl)-amide]
4 | 2 | CC(=O)N1CCN(c2ccc3c(C4CCN(C(=O)Nc5ccc(N6CCOCC6)cc5)CC4)ncnc3c2)CC1 [Example 141, 4-[7-(4-Acetyl-piperazin-1-yl)-quinazolin-4-yl]-piperidine-1-carboxylic acid (4-morpholin-4-yl-phenyl)-amide]
5 | 5 | CS(=O)(=O)N1CCN(c2ccc3c(C4CCN(C(=O)Nc5ccc(N6CCOCC6)cc5)CC4)ncnc3c2)CC1 [Example 142, 4-[7-(4-Methanesulfonyl-piperazin-1-yl)-quinazolin-4-yl]-piperidine-1-carboxylic acid (4-morpholin-4-yl-phenyl)-amide]
6 | 1 | CN(C)C(=O)N1CCN(c2ccc3c(C4CCN(C(=O)Nc5ccc(N6CCOCC6)cc5)CC4)ncnc3c2)CC1 [Example 143, 4-{4-[1-(4-Morpholin-4-yl-phenylcarbamoyl)-piperidin-4-yl]-quinazolin-7-yl}-piperazine-1-carboxylic acid dimethylamide]
7 | 170 | CN(C)CC(=O)N1CCN(c2ccc3c(C4CCN(C(=O)Nc5ccc(N6CCOCC6)cc5)CC4)ncnc3c2)CC1 [Example 144, 4-{7-[4-(2-Dimethylamino-acetyl)-piperazin-1-yl]-quinazolin-4-yl}-piperidine-1-carboxylic acid (4-morpholin-4-yl-phenyl)-amide]
8 | 14 | O=C(Nc1ccc(N2CCOCC2)cc1)N1CCC(c2ncnc3cc(N4CCOCC4)ccc23)CC1 [Example 145, 4-(7-Morpholin-4-yl-quinazolin-4-yl)-piperidine-1-carboxylic acid (4-morpholin-4-yl-phenyl)-amide]
9 | 87 | CS(=O)(=O)CCNc1ccc2c(C3CCN(C(=O)Nc4ccc(N5CCOCC5)cc4)CC3)ncnc2c1 [Example 146, 4-[7-(2-Methanesulfonyl-ethylamino)-quinazolin-4-yl]-piperidine-1-carboxylic acid (4-morpholin-4-yl-phenyl)-amide]
10 | 0.2 | O=C(Nc1ccc(N2CCCC2)cc1)N1CCC(c2ncnc3cc(OCCN4CCOC4=O)ccc23)CC1 [Example 147, 4-{7-[2-(2-Oxo-oxazolidin-3-yl)-ethoxy]-quinazolin-4-yl}-piperidine-1-carboxylic acid (4-pyrrolidin-1-yl-phenyl)-amide]
11 | 83 | O=C(Nc1ccc(N2CCOCC2)cc1)N1CCC(c2ncnc3cc(OCCN4CCOC4=O)ccc23)CC1 [Example 148, 4-{7-[2-(2-Oxo-oxazolidin-3-yl)-ethoxy]-quinazolin-4-yl}-piperidine-1-carboxylic acid (4-morpholin-4-yl-phenyl)-amide]
12 | 3 | CN(C)[C@@H]1CCN(c2ccc3c(C4CCN(C(=O)Nc5ccc(N6CCCC6)cc5)CC4)ncnc3c2)C1 [Example 149, (R)-4-[7-(3-Dimethylamino-pyrrolidin-1-yl)-quinazolin-4-yl]-piperidine-1-carboxylic acid (4-pyrrolidin-1-yl-phenyl)-amide]
13 | 19 | CN(C)[C@@H]1CCN(c2ccc3c(C4CCN(C(=O)Nc5ccc(N6CCOCC6)cc5)CC4)ncnc3c2)C1 [Example 150, (R)-4-[7-(3-Dimethylamino-pyrrolidin-1-yl)-quinazolin-4-yl]-piperidine-1-carboxylic acid (4-morpholin-4-yl-phenyl)-amide]
14 | 45 | CN1CCC[C@H]1COc1ccc2c(C3CCN(C(=O)Nc4ccc(N5CCCC5)cc4)CC3)ncnc2c1 [Example 151, (S)-4-[7-(1-Methyl-pyrrolidin-2-ylmethoxy)-quinazolin-4-yl]-piperidine-1-carboxylic acid (4-pyrrolidin-1-yl-phenyl)-amide]
15 | 42 | O=C(Nc1ccc(N2CCCC2)cc1)N1CCC(c2ncnc3cc(OCCN4CCC[C@H]4CO)ccc23)CC1 [Example 152, (S)-4-{7-[2-(2-Hydroxymethyl-pyrrolidin-1-yl)-ethoxy]-quinazolin-4-yl}-piperidine-1-carboxylic acid (4-pyrrolidin-1-yl-phenyl)-amide]
16 | 110 | O=C(Nc1ccc(N2CCOCC2)cc1)N1CCC(c2ncnc3cc(OCCN4CCC[C@H]4CO)ccc23)CC1 [Example 153, (S)-4-{7-[2-(2-Hydroxymethyl-pyrrolidin-1-yl)-ethoxy]-quinazolin-4-yl}-piperidine-1-carboxylic acid (4-morpholin-4-yl-phenyl)-amide]
17 | 2 | CC(=O)N1CC[C@@H](Oc2ccc3c(C4CCN(C(=O)Nc5ccc(N6CCCC6)cc5)CC4)ncnc3c2)C1 [Example 154, (R)-4-[7-(1-Acetyl-pyrrolidin-3-yloxy)-quinazolin-4-yl]-piperidine-1-carboxylic acid (4-pyrrolidin-1-yl-phenyl)-amide]
18 | 0.4 | CNC(=O)C1CCN(c2ccc3c(C4CCN(C(=O)Nc5ccc(N6CCCC6)cc5)CC4)ncnc3c2)CC1 [Example 155, 4-[7-(4-Carboxylic acid methylamide-piperidin-1-yl)-quinazolin-4-yl]-piperidine-1-carboxylic acid (4-pyrrolidin-1-yl-phenyl)-amide]
19 | 32 | CN1CCN(CCOc2ccc3c(C4CCN(C(=O)Nc5ccc(N6CCOCC6)cc5)CC4)ncnc3c2)CC1 [Example 156, 4-{7-[2-(4-Methyl-piperazin-1-yl)-ethoxy]-quinazolin-4-yl}-piperidine-1-carboxylic acid (4-morpholin-4-yl-phenyl)-amide]
20 | 16 | CN1CCN(CCOc2ccc3c(C4CCN(C(=O)Nc5ccc(N6CCCC6)cc5)CC4)ncnc3c2)CC1 [Example 157, 4-{7-[2-(4-Methyl-piperazin-1-yl)-ethoxy]-quinazolin-4-yl}-piperidine-1-carboxylic acid (4-pyrrolidin-1-yl-phenyl)-amide]
21 | 0.4 | CN1CCN(CCCOc2ccc3c(C4CCN(C(=O)Nc5ccc(N6CCCC6)cc5)CC4)ncnc3c2)CC1 [Example 158, 4-{7-[3-(4-Methyl-piperazin-1-yl)-propoxy]-quinazolin-4-yl}-piperidine-1-carboxylic acid (4-pyrrolidin-1-yl-phenyl)-amide]
22 | 6 | CN1CCN(c2ccc3c(C4CCN(C(=O)Nc5ccc(N6CCCC6)cc5)CC4)ncnc3c2)CC1 [Example 159, 4-[7-(4-Methyl-piperazin-1-yl)-quinazolin-4-yl]-piperidine-1-carboxylic acid (4-pyrrolidin-1-yl-phenyl)-amide]
23 | 11 | CN1CCN(c2ccc3c(C4CCN(C(=O)Nc5ccc(N6CCCC6)nc5)CC4)ncnc3c2)CC1 [Example 160, 4-[7-(4-Methyl-piperazin-1-yl)-quinazolin-4-yl]-piperidine-1-carboxylic acid (6-pyrrolidin-1-yl-pyridin-3-yl)-amide]
